The values below come from ChEMBL document CHEMBL1811891 (Bioorg Med Chem, 2011).

A short description of series [1]: Cmax in rat at 10 mg/kg, po. It counts as ADME, organism-based. Also on record: dose 10 mg/kg, route oral. As to conditions: in vivo.
Series [2] concerns Liver microsomes. In words: Metabolic stability in human liver microsomes assessed as compound remaining after 15 mins. It counts as ADME, Microsome. The following applies: 0.25 h.
Series [3] can be described thus: Half life in rat at 3 mg/kg, iv. The following applies: in vivo. Also on record: dose 3 mg/kg, route intravenous. It counts as ADME, organism-based.
Series [4] in a line: AUC in rat at 3 mg/kg, iv. In kind it is ADME, organism-based. Also on record: dose 3 mg/kg, route intravenous. The following applies: plasma.
A short description of series [5]: Half life in rat at 10 mg/kg, po. It counts as ADME, organism-based. Also on record: dose 10 mg/kg, route oral. The following applies: in vivo.
Series [6] has as its system Liver microsomes. As to the kind of experiment: Metabolic stability in rat liver microsomes assessed as compound remaining after 15 mins. It counts as ADME, Microsome. As to conditions: 0.25 h.
A short description of series [7]: Clearance in rat at 3 mg/kg, iv. The following applies: in vivo. In kind it is ADME, organism-based. Also on record: dose 3 mg/kg, route intravenous.
Series [8] concerns the target C-C chemokine receptor type 5 (Homo sapiens, UniProt P51681). In words: Antagonist activity at human CCR5 expressed in CHO cells assessed as inhibition of MIP-1alpha-induced calcium mobilization. It counts as functional, cell-based.
For series [9], the system named is Human immunodeficiency virus 1. As to the kind of experiment: microbe, parasite or virus in culture. As to conditions: Human immunodeficiency virus 1, Ba-L.
Description: Antiviral activity against R5 tropic HIV1 Ba-L infected PBMC assessed as inhibition of viral p24 antigen expression
Series [10] in a line: Bioavailability in rat at 10 mg/kg, po. It counts as ADME, organism-based. As to conditions: in vivo.
In series [11] the test system is Rattus norvegicus. As to the kind of experiment: Dose normalized AUC in rat at 10 mg/kg, po. As to conditions: in vivo. Also on record: dose 10 mg/kg, route oral. It counts as ADME, organism-based.
Series [12] in a line: Volume of distribution at steady state in rat at 3 mg/kg, iv. As to conditions: in vivo.
Series [13] has as its system Rattus norvegicus. In words: Dose normalized Cmax in rat at 10 mg/kg, po. It counts as ADME, organism-based. As to conditions: in vivo. Also on record: dose 10 mg/kg, route oral.
A short description of series [14]: Aqueous solubility of the compound at pH 6.8. It counts as physicochemical. The following applies: buffer.
Series [15] can be described thus: Clearance in monkey at 1 mg/kg, iv. It counts as ADME, organism-based, Macaca mulatta. Also on record: dose 1 mg/kg, route intravenous. The following applies: rhesus monkey, in vivo.
The nature of series [16]: in vivo. The following applies: dog, plasma, po, 3 mg/kg.
Series [17] has as its system Rattus norvegicus. As to the kind of experiment: Toxicity in rat at 100 mg/kg, po after 14 days. It counts as organism-based. Also on record: dose 100 mg/kg, route oral. As to conditions: in vivo, 336 h.
The nature of series [18]: Bioavailability in rat at 1 mg/kg, iv. It counts as ADME, organism-based. As to conditions: in vivo.
For another series, the system named is Rhesus monkey. In words: Half life in monkey at 10 mg/kg, po. It counts as ADME, organism-based, Macaca mulatta. Also on record: dose 10 mg/kg, route oral. As to conditions: in vivo.
The subject of another series is Salmonella typhimurium. In words: Genotoxicity in Salmonella Typhimurium by Ames test. In kind it is toxicity, organism-based. The following applies: salmonella enterica subsp. enterica serovar typhimurium. In general terms: In the Ames test, an excess of revertant colonies over the control signals mutagenicity.
The nature of series [19]: in vivo. The following applies: dog, po, 3 mg/kg.
Series [20] in a line: Bioavailability in dog at 1 mg/kg, iv. As to conditions: in vivo. In kind it is ADME, organism-based, Canis lupus familiaris.
A short description of series [21]: Clearance in dog at 1 mg/kg, iv. It counts as ADME, organism-based, Canis lupus familiaris. Also on record: dose 1 mg/kg, route intravenous. The following applies: in vivo.
The nature of series [22]: Clearance in rat at 1 mg/kg, iv. The following applies: in vivo. Also on record: dose 1 mg/kg, route intravenous. It counts as ADME, organism-based.
Series [23] can be described thus: Half life in dog at 3 mg/kg, po. In kind it is ADME, organism-based, Canis lupus familiaris. Also on record: dose 3 mg/kg, route oral. As to conditions: in vivo.
The next series concerns Canis familiaris. In words: Cardiotoxicity in dog at 100 mg/kg, po after 14 days. In kind it is toxicity, organism-based, Canis lupus familiaris. Also on record: dose 100 mg/kg, route oral. The following applies: in vivo, 336 h.
Series [24] is described as follows: Bioavailability in monkey at 1 mg/kg, iv. It counts as ADME, organism-based, Macaca mulatta. The following applies: rhesus monkey, in vivo.

Sequence of C-C chemokine receptor type 5 (P51681 whole entry): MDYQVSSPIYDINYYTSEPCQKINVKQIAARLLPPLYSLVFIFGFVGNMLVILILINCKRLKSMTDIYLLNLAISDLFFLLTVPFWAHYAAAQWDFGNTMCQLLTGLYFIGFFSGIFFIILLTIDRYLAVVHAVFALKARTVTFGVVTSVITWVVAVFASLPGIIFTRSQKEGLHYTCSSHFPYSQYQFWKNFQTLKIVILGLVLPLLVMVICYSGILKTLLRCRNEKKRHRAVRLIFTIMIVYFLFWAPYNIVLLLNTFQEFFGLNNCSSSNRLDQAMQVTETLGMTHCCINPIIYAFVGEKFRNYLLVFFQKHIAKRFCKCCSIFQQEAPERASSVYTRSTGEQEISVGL

The Cmax is the maximum level reached in the sampled fluid or tissue. For orientation: half-life means the time needed for the level to fall by half in the phase considered. In general, AUC refers to concentration integrated over time. As a reminder, the clearance is a measure of how efficiently the substance is removed, as volume per time. In general, IC50 refers to the concentration that gives 50% inhibition. The IC90 is the point of the concentration-response curve where the effect stands at 90%. A word on the bioavailability: it is dose-corrected exposure relative to a reference, in per cent. The compound `CCCCN1C(=O)[C@@H]([C@H](O)C(C)C)NC(=O)C12CCN(Cc1ccc(Oc3ccc(C(=O)O)cc3)cc1)CC2.Cl` gave a Cmax in series [1] of 137 ng/mL. The Stability in the series on Liver microsomes [2] is listed as 98%; in the series with Liver microsomes [6], 100%. In addition, the half-life in [3] is 0.22 h; in series [5] it was 4.5 h. This compound registered an exposure (AUC) in series [4] of 2310 ng·h/mL. For the same compound, the clearance in series [7] was 21.2 mL/min/kg. The values for the concentration for half-maximal inhibition (IC50) in series [8] and in [9] were 48 nM and 59 nM, respectively. This compound gave a concentration for an effect of 90% (IC90) in series [9] of 591 nM. The same compound returned a bioavailability in series [10] of 5.9%.

The term Vd denotes the apparent volume that relates the amount in the body to the concentration in plasma or blood. Turning to `CCCN1C(=O)[C@@H]([C@H](O)C2CCCCC2)NC(=O)C12CCN(Cc1ccc(Oc3ccc(C(=O)NC)cc3)cc1)CC2.Cl`, in the series with Rattus norvegicus [11], the AUC/dose was determined as 513 ng·h/mL. The half-life in series [3] stood at 0.72 h; in series [5] it was 2 h. Also, the AUC in series [4] turned out to be 1370 ng·h/mL. In series [12], this compound had a Vd of 1.73 L/kg. The compound further registered a clearance in [7] of 35.9 mL/min/kg. Further, the IC50 in [8] came to 28 nM. This compound returned a Cmax/dose in the series on Rattus norvegicus [13] of 133 ng/mL. For the same compound, in series [10], the bioavailability was determined as 11.2%.

One may read the solubility as how much of the substance goes into solution per volume. The compound `CCCCN1C(=O)C(C(C)C)NC(=O)C12CCN(Cc1ccc(Oc3ccccc3)cc1)CC2.Cl` (stereo unspecified) returned an AUC/dose in the series on Rattus norvegicus [11] of 96.7 ng·h/mL. The values for the half-life in series [3] and in series [5] were 0.217 h and 1.26 h, respectively. This compound also displayed an area under the curve (AUC) in series [4] of 372 ng·h/mL. The compound further showed a solubility in [14] of 0.2 µg/mL. In the series with Rattus norvegicus [13], this compound had a Cmax/dose of 33.3 ng/mL. This compound also came in with a bioavailability in series [10] of 1.3%.

Consider `CCCCN1C(=O)[C@@H]([C@H](O)C2CCCCC2)NC(=O)C12CCN(Cc1ccc(Oc3ccc(C(=O)O)cc3)cc1)CC2.Cl` [APLAVIROC HYDROCHLORIDE], for which the clearance in [15] is 15 mL/min; in series [21], 33 mL/min; in series [22], 10 mL/min. The compound also came in with an AUC in “in vivo [16]” of 189 ng·h/mL. Moreover, the Activity result with Rattus norvegicus [17], in the series with Salmonella typhimurium and in the series on Canis familiaris was “Non-toxic” in each case. In addition, the results for the bioavailability in [18], in series [20] and in series [24] were 23%, 12% and 4.6%, respectively. In the series with Rhesus monkey, the t1/2 stood at 24.4 h. The same compound yielded a Cmax in “in vivo [19]” of 135 ng/mL. Besides, the concentration for an effect of 90% (IC90) in [9] was 12 nM. Besides, in series [23], the half-life was determined as 4.5 h.
